Experimental data published in patent US12465603B2, “Phthalazinone based modulators for the treatment of disease” (Soley Therapeutics, Inc., priority 2022, dated 2025).

Key:
[1] = system: PA1 (ECACC, 90013101) cells; assay: Cell viability assay (Cell Titre Glo, 72 hours) in PA1 cells; format: cell-based; conditions: Homo sapiens, PA-1
Protocol: (§1) Example 31: Cell Viability Assays
(§2) Phthalazinone based modulators as described herein were dispensed into 384 well CulturPlates™ (PerkinElmer) using Echo 555 acoustic dispensing in 10-point dose response curves at a final top concentration of 30 μM following a 1 in 3 dilution series. A2058 (ATCC, CRL-11147) or PA1 (ECACC, 90013101) cells were added directly to a compound at a density of 5000 cells per well in a final volume of 50 μL and incubated for 72 hours at 37° C., 5% CO2. Viability was assessed using Cell Titre Glo® (Promega) according to the manufacturer's instructions (25 μL per well) and IC50 curves were generated for each inhibitor using IDBS ActivityBase data analysis software.

[2] = system: A2058 (ATCC, CRL-11147) cells; assay: Cell viability assay (Cell Titre Glo, 72 hours) in A2058 cells; format: cell-based; conditions: Homo sapiens
Protocol: as §1, §2

| SMILES | IC50 [1] [nM] | IC50 [2] [nM] |
| --- | --- | --- |
| CCn1nc(C(=O)N2CCN(c3cccc(C4CC4)c3)CC2)c2ccccc2c1=O [Compound 116, 4-(4-(3-cyclopropylphenyl)piperazine-1-carbonyl)-2-ethylphthalazin-1(2H)-one] | ≤ 1000 | ≤ 1000 |
| CCn1nc(C(=O)N2CCN(c3ccc(Cl)cc3OC)CC2)c2ccccc2c1=O [Compound 117] | ≤ 1000 | ≤ 1000 |
| CCn1nc(C(=O)N2CCN(c3cnccc3OC)CC2)c2ccccc2c1=O [Compound 118] | ≤ 1000 | ≤ 1000 |
| CCn1nc(C(=O)N2CCN(c3ccc(F)cc3C3CC3)CC2)c2ccccc2c1=O [Compound 119] | ≤ 1000 | ≤ 1000 |
| CCn1nc(C(=O)N2CCN(c3ccc(F)cc3OC(F)(F)F)CC2)c2ccccc2c1=O [Compound 120] | 1000 to 10000 | 1000 to 10000 |
| CCn1nc(C(=O)N2CCN(c3cc(F)ccc3OC)CC2)c2ccccc2c1=O [Compound 121] | ≤ 1000 | ≤ 1000 |
| CCn1nc(C(=O)N2CCN(c3cncnc3C3CC3)CC2)c2ccccc2c1=O [Compound 122] | ≤ 1000 | 1000 to 10000 |
| CCn1nc(C(=O)N2CCN(c3c(C)cnc4ccccc34)CC2)c2ccccc2c1=O [Compound 123] | > 20000 | > 20000 |
| CCn1nc(C(=O)N2CCN(c3cccc4c3OC(F)(F)O4)CC2)c2ccccc2c1=O [Compound 124] | ≤ 1000 | ≤ 1000 |
| CCn1nc(C(=O)N2CCN(c3ccc(C)s3)CC2)c2ccccc2c1=O [Compound 125] | 10000 to 20000 | > 20000 |
| CCn1nc(C(=O)N2CCN(c3cccc4c3OCC4)CC2)c2ccccc2c1=O [Compound 126] | ≤ 1000 | ≤ 1000 |
| CCn1nc(C(=O)N2CCN(c3ccc(OCCOC)cc3Cl)CC2)c2ccccc2c1=O [Compound 127] | > 20000 | > 20000 |
| CCn1nc(C(=O)N2CCN(c3ccccc3OC(C)C)CC2)c2ccccc2c1=O [Compound 128] | ≤ 1000 | 1000 to 10000 |
| CCn1nc(C(=O)N2CCN(c3ccccc3OCCOC)CC2)c2ccccc2c1=O [Compound 129] | > 20000 | > 20000 |
| CCn1nc(C(=O)N2CCN(c3ccc(F)cc3OC)CC2)c2ccccc2c1=O [Compound 130] | ≤ 1000 | ≤ 1000 |
| CCn1nc(C(=O)N2CCN(c3ccccc3C(C)(F)F)CC2)c2ccccc2c1=O [Compound 131] | 1000 to 10000 | 1000 to 10000 |
| CCn1nc(C(=O)N2CCN(c3ccccc3OC3CC3)CC2)c2ccccc2c1=O [Compound 132] | ≤ 1000 | 1000 to 10000 |
| CCn1nc(C(=O)N2CCN(c3ccccc3C#N)CC2)c2ccccc2c1=O [Compound 133] | 10000 to 20000 | > 20000 |
| CCOc1ccccc1N1CCN(C(=O)c2nn(CC)c(=O)c3ccccc23)CC1 [Compound 134] | ≤ 1000 | ≤ 1000 |
| CCn1nc(C(=O)N2CCN(c3ccccc3OC(F)(F)F)CC2)c2ccccc2c1=O [Compound 135] | ≤ 1000 | ≤ 1000 |
| CCn1nc(C(=O)N2CCN(c3ncccc3C(F)(F)F)CC2)c2ccccc2c1=O [Compound 136] | 1000 to 10000 | 10000 to 20000 |
| CCn1nc(C(=O)N2CCN(c3cccc(C(F)(F)F)c3OC)CC2)c2ccccc2c1=O [Compound 137] | 10000 to 20000 | > 20000 |
| CCn1nc(C(=O)N2CCN(c3cccc(F)c3OC)CC2)c2ccccc2c1=O [Compound 138] | ≤ 1000 | ≤ 1000 |
| CCn1nc(C(=O)N2CCN(c3ncc(C)cc3F)CC2)c2ccccc2c1=O [Compound 139] | > 20000 | > 20000 |
| CCn1nc(C(=O)N2CCN(c3ncc(F)cc3C(F)(F)F)CC2)c2ccccc2c1=O [Compound 140] | 1000 to 10000 | 1000 to 10000 |
| CCn1nc(C(=O)N2CCN(c3ccc(OC)c(F)c3)CC2)c2ccccc2c1=O [Compound 141] | > 20000 | > 20000 |
| CCn1nc(C(=O)N2CCN(c3cc(F)cc(F)c3)CC2)c2ccccc2c1=O [Compound 142] | ≤ 1000 | ≤ 1000 |
